Test system: human estrogen receptor α (hERα) or β receptor (hERβ)
Assay: in vitro transactivation bioassay (luciferase reporter) in recombinant CHO cells, estrogenic (agonist) activity compared with estradiol
Type: cell-based
Settings: percentage agonist activity for ER α divided by percentage agonist activity for ER β; CHO cells co-transfected with hERα or hERβ, rat oxytocin promoter and luciferase reporter
Protocol: Compounds are tested for their estrogen receptor activity in a binding assay and in a transactivation assay. The estrogenic and antiestrogenic activity of compounds is determined in an in vitro bioassay with recombinant Chinese hamster ovary (CHO) cells stably co-transfected with the human estrogen receptor α (hERα) or β receptor (hERβ), the rat oxytocin promoter (RO) and the luciferase reporter gene (LUC). The estrogenic activity (potency ratio) of a test compound to stimulate the transactivation of the enzyme luciferase mediated via the estrogen receptors hERα or hERβ is compared with the standard estrogen estradiol. The antiestrogenic activity (potency ratio) of a test compound to inhibit the transactivation of the enzyme luciferase mediated via the estrogen receptors hERα or hERβ by the estrogen estradiol is compared with the standard ICI 164.384 (=(7α,17β)-N-butyl-3,17-dihydroxy-N-methylestra-1,3,5(10)-triene-7-undecanamide). A quantitative parameter for agonist selectivity is obtained by dividing the percentage agonist activity for ER α by the percentage agonist activity for ER β. Compound 11a has agonist selectivity for estrogen receptor α over estrogen receptor β of more than 86 times. Compound 26 has an agonist selectivity for ER α over ER β of 59 times. Compound 27 has agonist selectivity of 88.3 times.

## C#CC1(O)C(C)CC2C3CCC4=C(CCC(O)C4)C3C(CC=C)CC21C (stereo not drawn) [Compound 27, (3α,11β,16α,17β)-16-methyl-11-(2-propenyl)-19-norpregn-5(10)-en-20-yne-3,17-diol]
  agonist selectivity for estrogen receptor α over estrogen receptor β: 88.3 times

— patent US7696190B2, “16Alpha-methyl or ethyl substituted estrogens” (N.V. Organon, priority 2000, dated 2010)
